# Results as given in PubChem BioAssay (NCI).
#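 These data come from cells grown in 96-well plates and exposed to compound for 48 hours at five concentrations. GI50 is the concentration that inhibits growth by half. TGI: concentration producing complete growth inhibition.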
# What was measured:
# Assay in all cases: NCI-60 cell line screen, 48 h
# HS 578T breast = tested on: HS 578T breast
# T-47D breast = tested on: T-47D breast
# HCT-116 colon = tested on: HCT-116 colon
# DU-145 prostate = tested on: DU-145 prostate
# K-562 leukemia = tested on: K-562 leukemia
# UACC-257 melanoma = tested on: UACC-257 melanoma
# SK-MEL-2 melanoma = tested on: SK-MEL-2 melanoma
# M14 melanoma = tested on: M14 melanoma
# NCI-H23 lung = tested on: NCI-H23 lung
# HCT-15 colon = tested on: HCT-15 colon
# HCC-2998 colon = tested on: HCC-2998 colon
# NCI-H226 lung = tested on: NCI-H226 lung
# SK-MEL-28 melanoma = tested on: SK-MEL-28 melanoma
# TK-10 renal = tested on: TK-10 renal
# KM12 colon = tested on: KM12 colon
# SR leukemia = tested on: SR leukemia
# MDA-MB-231 breast = tested on: MDA-MB-231 breast
# 786-0 renal = tested on: 786-0 renal
# HOP-62 NSCLC = tested on: HOP-62 NSCLC
# SN12C renal = tested on: SN12C renal
# CAKI-1 renal = tested on: CAKI-1 renal
# MOLT-4 leukemia = tested on: MOLT-4 leukemia
# NCI-H522 lung = tested on: NCI-H522 lung
# OVCAR-5 ovarian = tested on: OVCAR-5 ovarian
# SF-268 CNS = tested on: SF-268 CNS
# SF-295 CNS = tested on: SF-295 CNS
# BT-549 breast = tested on: BT-549 breast
# HT29 colon = tested on: HT29 colon
# UACC-62 melanoma = tested on: UACC-62 melanoma
# UO-31 renal = tested on: UO-31 renal
# MCF7 breast = tested on: MCF7 breast
# RXF 393 renal = tested on: RXF 393 renal
# A549 NSCLC = tested on: A549 NSCLC
# SF-539 CNS = tested on: SF-539 CNS
# A498 renal = tested on: A498 renal
# HL-60(TB) leukemia = tested on: HL-60(TB) leukemia
# SNB-19 CNS = tested on: SNB-19 CNS
# OVCAR-8 ovarian = tested on: OVCAR-8 ovarian
# SW-620 colon = tested on: SW-620 colon
# MALME-3M melanoma = tested on: MALME-3M melanoma
# LOX IMVI melanoma = tested on: LOX IMVI melanoma
# IGROV1 ovarian = tested on: IGROV1 ovarian
# ACHN renal = tested on: ACHN renal
# U251 CNS = tested on: U251 CNS
# OVCAR-4 ovarian = tested on: OVCAR-4 ovarian
# EKVX NSCLC = tested on: EKVX NSCLC
# OVCAR-3 ovarian = tested on: OVCAR-3 ovarian
# SNB-75 CNS = tested on: SNB-75 CNS
# CCRF-CEM leukemia = tested on: CCRF-CEM leukemia
# MDA-MB-435 = tested on: MDA-MB-435
# NCI-H460 lung = tested on: NCI-H460 lung
# COLO 205 colon = tested on: COLO 205 colon
# PC-3 prostate = tested on: PC-3 prostate
# SK-MEL-5 melanoma = tested on: SK-MEL-5 melanoma
# SK-OV-3 ovarian = tested on: SK-OV-3 ovarian
# NCI/ADR-RES ovarian = tested on: NCI/ADR-RES ovarian
compound,measurement,setting,value
CCC1CN2C(=N1)c1ccccc1-c1cc(Cl)ccc12 (configuration not stated),GI50,HS 578T breast,6.58 µM
same,TGI,HS 578T breast,34.5 µM
same,GI50,T-47D breast,3.52 µM
same,TGI,T-47D breast,23 µM
same,GI50,HCT-116 colon,2.53 µM
same,TGI,HCT-116 colon,10.6 µM
same,GI50,DU-145 prostate,2.31 µM
same,TGI,DU-145 prostate,6.26 µM
same,GI50,K-562 leukemia,2.39 µM
same,TGI,K-562 leukemia,7.1 µM
same,GI50,UACC-257 melanoma,2.96 µM
same,TGI,UACC-257 melanoma,10.3 µM
same,GI50,SK-MEL-2 melanoma,2.75 µM
same,TGI,SK-MEL-2 melanoma,7.77 µM
same,GI50,M14 melanoma,3.13 µM
same,TGI,M14 melanoma,10.4 µM
same,GI50,NCI-H23 lung,3.78 µM
same,TGI,NCI-H23 lung,15.2 µM
same,GI50,HCT-15 colon,2.86 µM
same,TGI,HCT-15 colon,11.5 µM
same,GI50,HCC-2998 colon,4.17 µM
same,TGI,HCC-2998 colon,16.3 µM
same,GI50,NCI-H226 lung,1.81 µM
same,TGI,NCI-H226 lung,4.86 µM
same,GI50,SK-MEL-28 melanoma,4.97 µM
same,TGI,SK-MEL-28 melanoma,18.4 µM
same,GI50,TK-10 renal,4.79 µM
same,TGI,TK-10 renal,32.8 µM
same,GI50,KM12 colon,3.18 µM
same,TGI,KM12 colon,12.5 µM
same,GI50,SR leukemia,1.51 µM
same,TGI,SR leukemia,4.53 µM
same,GI50,MDA-MB-231 breast,3.4 µM
same,TGI,MDA-MB-231 breast,25.4 µM
same,GI50,786-0 renal,3.32 µM
same,TGI,786-0 renal,13 µM
same,GI50,HOP-62 NSCLC,2.97 µM
same,TGI,HOP-62 NSCLC,8.87 µM
same,GI50,SN12C renal,2.97 µM
same,TGI,SN12C renal,17.4 µM
same,GI50,CAKI-1 renal,4.32 µM
same,TGI,CAKI-1 renal,46.7 µM
same,GI50,MOLT-4 leukemia,2.51 µM
same,TGI,MOLT-4 leukemia,7.16 µM
same,GI50,NCI-H522 lung,2.58 µM
same,TGI,NCI-H522 lung,8.19 µM
same,GI50,OVCAR-5 ovarian,4.48 µM
same,TGI,OVCAR-5 ovarian,29.6 µM
same,GI50,SF-268 CNS,2.96 µM
same,TGI,SF-268 CNS,11.6 µM
same,GI50,SF-295 CNS,3.91 µM
same,TGI,SF-295 CNS,31.3 µM
same,GI50,BT-549 breast,13.2 µM
same,TGI,BT-549 breast,50.3 µM
same,GI50,HT29 colon,2.01 µM
same,TGI,HT29 colon,7.11 µM
same,GI50,UACC-62 melanoma,1.76 µM
same,TGI,UACC-62 melanoma,5.17 µM
same,GI50,UO-31 renal,2.39 µM
same,TGI,UO-31 renal,15.1 µM
same,GI50,MCF7 breast,2.45 µM
same,TGI,MCF7 breast,14.1 µM
same,GI50,RXF 393 renal,3.5 µM
same,TGI,RXF 393 renal,15 µM
same,GI50,A549 NSCLC,2.24 µM
same,TGI,A549 NSCLC,15.6 µM
same,GI50,SF-539 CNS,3.88 µM
same,TGI,SF-539 CNS,14.8 µM
same,GI50,A498 renal,3.01 µM
same,TGI,A498 renal,12.1 µM
same,GI50,HL-60(TB) leukemia,1.85 µM
same,TGI,HL-60(TB) leukemia,9.34 µM
same,GI50,SNB-19 CNS,5.85 µM
same,TGI,SNB-19 CNS,30.5 µM
same,GI50,OVCAR-8 ovarian,3.32 µM
same,TGI,OVCAR-8 ovarian,18.4 µM
same,GI50,SW-620 colon,2.72 µM
same,TGI,SW-620 colon,15.5 µM
same,GI50,MALME-3M melanoma,2.8 µM
same,TGI,MALME-3M melanoma,8.15 µM
same,GI50,LOX IMVI melanoma,1.81 µM
same,TGI,LOX IMVI melanoma,4.44 µM
same,GI50,IGROV1 ovarian,2.29 µM
same,TGI,IGROV1 ovarian,15.1 µM
same,GI50,ACHN renal,1.75 µM
same,TGI,ACHN renal,4.21 µM
same,GI50,U251 CNS,3.18 µM
same,TGI,U251 CNS,11.6 µM
same,GI50,OVCAR-4 ovarian,3.97 µM
same,TGI,OVCAR-4 ovarian,28.6 µM
same,GI50,EKVX NSCLC,4.74 µM
same,TGI,EKVX NSCLC,26.6 µM
same,GI50,OVCAR-3 ovarian,3.48 µM
same,TGI,OVCAR-3 ovarian,9.9 µM
same,GI50,SNB-75 CNS,3.73 µM
same,TGI,SNB-75 CNS,16 µM
same,GI50,CCRF-CEM leukemia,2.02 µM
same,TGI,CCRF-CEM leukemia,4.79 µM
same,GI50,MDA-MB-435,4.39 µM
same,TGI,MDA-MB-435,16.2 µM
same,GI50,NCI-H460 lung,2.15 µM
same,TGI,NCI-H460 lung,10.5 µM
same,GI50,COLO 205 colon,3.21 µM
same,TGI,COLO 205 colon,12.6 µM
same,GI50,PC-3 prostate,2.82 µM
same,TGI,PC-3 prostate,11.8 µM
same,GI50,SK-MEL-5 melanoma,2.03 µM
same,TGI,SK-MEL-5 melanoma,4.69 µM
same,GI50,SK-OV-3 ovarian,4.27 µM
same,TGI,SK-OV-3 ovarian,24.6 µM
same,GI50,NCI/ADR-RES ovarian,3.7 µM
same,TGI,NCI/ADR-RES ovarian,18.4 µM
